These results are taken from patent US20240067693A1, “POLYPEPTIDES AND USES THEREOF” (MEDIMMUNE LIMITED, priority 2020, published 2024).

In data set [1] the target is T1, human amylin receptor (calcitonin receptor co-expressed with receptor activity modifying protein, RAMP3) (hAMYR3) (Homo sapiens, UniProt O60896+P30988).
T1 construct: expressed in transfected cells
T1 sequence (P30988 25-474): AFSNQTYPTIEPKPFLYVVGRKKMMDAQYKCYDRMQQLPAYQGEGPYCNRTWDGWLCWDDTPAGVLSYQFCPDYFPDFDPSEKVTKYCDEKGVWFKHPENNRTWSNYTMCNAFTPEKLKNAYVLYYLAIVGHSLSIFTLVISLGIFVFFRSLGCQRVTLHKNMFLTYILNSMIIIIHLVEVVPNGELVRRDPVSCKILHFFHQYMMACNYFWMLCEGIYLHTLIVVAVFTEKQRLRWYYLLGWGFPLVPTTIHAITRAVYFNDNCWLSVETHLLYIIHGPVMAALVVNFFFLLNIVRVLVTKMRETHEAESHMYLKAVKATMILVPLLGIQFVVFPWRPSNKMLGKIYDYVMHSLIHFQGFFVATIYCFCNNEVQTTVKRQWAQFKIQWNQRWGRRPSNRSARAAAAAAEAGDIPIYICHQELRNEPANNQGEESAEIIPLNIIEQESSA
T1 sequence (O60896 24-148 partner): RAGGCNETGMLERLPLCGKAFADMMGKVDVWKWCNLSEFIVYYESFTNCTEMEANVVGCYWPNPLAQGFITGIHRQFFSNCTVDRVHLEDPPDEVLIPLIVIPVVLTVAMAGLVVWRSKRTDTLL
The data set is described as follows: cAMP production in 1321N1 cells with stable recombinant expression of human amylin receptor (hAMYR3). The settings on record: for Ratio (selectivity hAMYR vs hCTR, ratio of EC50 values at the two receptors): EC50 hCTR / EC50 hAMYR3; for EC50: cAMP, 1321N1 cells, assay buffer with 0.1% BSA, read-out: EC50 (pM) hAMYR3. The data set is classed as cell-based. In short, it runs like this: (§1)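 EC50 values come from 4-parameter logistic fits of HTRF cAMP signal, normalised to maximal calcitonin or amylin effect. Peptides were tested in duplicate for 30 min at RT in IBMX-containing (0.5 mM) BSA/HEPES buffer pH 7.4 on stable 1321N1 (human CTR, AMYR3) or HEK (rat CTR, AMYR3) lines.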
(Changes in cAMP serve as a functional read-out for many G protein-coupled receptors.)

In data set [2] the target is T2, human calcitonin receptor (hCTR) (Homo sapiens, UniProt P30988).
T2 construct: expressed in transfected cells
T2 sequence (P30988 25-474): T1 sequence (P30988 25-474)
The data set is described as follows: cAMP production in 1321N1 cells with stable recombinant expression of human calcitonin receptor (hCTR). The data set is classed as cell-based. The settings on record: cAMP, 1321N1 cells, assay buffer with 0.1% BSA; read-out: EC50 (pM) hCTR. In short, it runs like this: as §1

Data set [3] can be described thus: Thioflavin T fibrillation assay. The settings on record: for Time taken to detect increase in fluorescence intensity: ThT fibrillation assay, peptide 1 mg/mL in 25 mM sodium acetate buffer pH 4.0, 6 days at 37 °C with shaking, >144 h = no increase. The data set is classed as physicochemical. In short, it runs like this:
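Peptides at 1 mg/mL in 25 mM sodium acetate pH 4.0 with ThT (from 0.25 mM stock), incubated 6 days at 37 °C with intermittent orbital shaking at 500–750 rpm. Fluorescence (ex 444/em 480 nm) read every 30 min; value is average time to a rise in baseline-corrected signal.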

A short description of a further data set: in vivo. As to conditions: male, Sprague-Dawley, rat, 20 nmol/kg.

Numbered stars: 1 amine (or outer) side, 2 acyl side, 3 side chain; on linkers, the order of the positions; unused ones are H or OH. Bridge positions count the residues as written; N and C are the ends. Square brackets hold non-standard residues; d marks the D form. Side chains are listed from the residue outwards. Peptide text beside a SMILES is read from it. * marks the point of attachment. C18 diacid = O=C(O)CCCCCCCCCCCCCCCCC(=O)*; γGlu = O=C(O)[C@H](CCC(=O)[*:2])N[*:1]; αMeF = C[C@](N)(Cc1ccccc1)C(=O)O; Aib = CC(C)(N)C(=O)O

Procedure for in vivo: PK studies were performed to determine the half-life (T1/2) of test peptides. T1/2 describes the time taken for the maximum plasma concentration (Cmax) of a test substance to halve its steady-state concentration when in circulation.
Male SD rats were purchased from Si Bei Fu Laboratory Animal Technology Co. Ltd (China). The animals were 6-8 weeks old with body weights of 200-300 g on the dosing date. The animals were housed in a 12-hour light/12-hour dark cycle environment and were fasted overnight before dosing. The body weight of the animals were recorded before dosing, 24 h and 48 h post dosing . Animals had free access to food and drinks, and the food consumption was quantified every day.
Test articles were administered at 20 nmol/kg. Blood samples were collected from each animal via Jugular vein.
The blood samples were transferred into eppendorf low binding tube containing K2 EDTA. Above 0.150 mL blood were collected at each time point. Blood samples were centrifuged at 4,000 g for 5 minutes at 4° C. to obtain plasma. The plasma samples were stored frozen at −75±15° C. until analysis.
Concentrations of the test articles in the plasma samples were analyzed using a LC-MS/MS method. Data acquisition was performed by LabSolution version 5.89 software (Shimadzu, Kyoto, Japan). Data statistics were performed using Excel 97-2003 software. The pharmacokinetic parameters of test articles were calculated using a non-compartmental approach with Phoenix™ VVinNonlin® 6.1.
The following pharmacokinetic parameters were calculated, whenever possible from the plasma concentration versus time data: • IV administration: T1/2, C0, AUClast, AUCinf, MRTinf, Cl, Vss, Number of Points for Regression. • SC administration: Tmax, Cmax, AUClast, AUCinf, MRTinf, F, Number of Points for Regression.

In general, EC50 refers to the concentration at which the effect is half-maximal. In general, half-life refers to the time in which the quantity being followed falls by half. A low value points to fast loss. For `CC[C@H](C)[C@H](NC(=O)[C@@H]1CCCN1C(=O)CNC(=O)[C@H](Cc1ccccc1)NC(=O)[C@H](CC(N)=O)NC(=O)C(C)(C)NC(=O)[C@H](CO)NC(=O)[C@H](CO)NC(=O)[C@H](Cc1c[nH]cn1)NC(=O)[C@@H](NC(=O)[C@H](CC(C)C)NC(=O)[C@H](Cc1ccccc1)NC(=O)[C@H](CC(N)=O)NC(=O)[C@H](C)NC(=O)[C@H](CC(C)C)NC(=O)[C@H](CCCNC(=N)N)NC(=O)[C@H](CCC(N)=O)NC(=O)[C@@H](NC(=O)[C@H](C)NC(=O)[C@@H]1CSSC[C@H](NC(=O)[C@H](CCCCN)NC(=O)[C@@H](N)CCCCNC(=O)CC[C@H](NC(=O)CCCCCCCCCCCCCCCCC(=O)O)C(=O)O)C(=O)N[C@@H](CC(N)=O)C(=O)N[C@@H]([C@@H](C)O)C(=O)N[C@@H](C)C(=O)N[C@@H]([C@@H](C)O)C(=O)N1)[C@@H](C)O)C(C)C)C(=O)N[C@@H](CC(C)C)C(=O)N1CCC[C@H]1C(=O)N1CCC[C@H]1C(=O)N[C@H](C(=O)NC(C)(C)C(=O)N[C@H](C(=O)NCC(=O)N[C@@H](CO)C(=O)N[C@@H](CC(N)=O)C(=O)N[C@H](C(=O)N[C@@H](Cc1ccc(O)cc1)C(N)=O)[C@@H](C)O)C(C)C)[C@@H](C)O` [Peptide 80, K(γE-C18diacid)K[CNTATC]ATQRLANFLVHSS(Aib)NFGPILPPT(Aib)VGSNTY-amide] (H-K([γGlu-C18 diacid])KCNTATCATQRLANFLVHSS[Aib]NFGPILPPT[Aib]VGSNTY-NH2; disulfide 3-8; N-terminus assumed), the “Ratio (selectivity hAMYR vs hCTR, ratio of EC50 values at the two receptors)” value in data set [1] is 7. The EC50 in data set [1] turned out to be 407 pM; in data set [2], 2970 pM. For the same compound, the “Time taken to detect increase in fluorescence intensity” value (“Time taken to detect increase” for short) in data set [3] is listed as greater than 144 h. Further, the half-life was 9.7 h in the data set “in vivo” (iv) and 9.9 h in the data set “in vivo” (sc).

In the case of `CC[C@H](C)[C@H](NC(=O)[C@@H]1CCCN1C(=O)CNC(=O)[C@](C)(Cc1ccccc1)NC(=O)[C@H](CC(N)=O)NC(=O)[C@H](CC(N)=O)NC(=O)[C@H](CO)NC(=O)[C@H](CO)NC(=O)[C@H](Cc1c[nH]cn1)NC(=O)[C@@H](NC(=O)[C@H](CC(C)C)NC(=O)[C@H](Cc1ccccc1)NC(=O)[C@H](CC(N)=O)NC(=O)[C@H](C)NC(=O)[C@H](CC(C)C)NC(=O)[C@H](CCCNC(=N)N)NC(=O)[C@H](CCC(N)=O)NC(=O)[C@@H](NC(=O)[C@H](C)NC(=O)[C@@H]1CSSC[C@H](NC(=O)[C@@H](N)CCCCNC(=O)CC[C@H](NC(=O)CC[C@H](NC(=O)CCCCCCCCCCCCCCCCC(=O)O)C(=O)O)C(=O)O)C(=O)N[C@@H](CC(N)=O)C(=O)N[C@@H]([C@@H](C)O)C(=O)N[C@@H](C)C(=O)N[C@@H]([C@@H](C)O)C(=O)N1)[C@@H](C)O)C(C)C)C(=O)N[C@@H](CC(C)C)C(=O)N1CCC[C@H]1C(=O)N1CCC[C@H]1C(=O)N[C@H](C(=O)N[C@@H](CC(N)=O)C(=O)N[C@H](C(=O)NCC(=O)N[C@@H](CO)C(=O)N[C@@H](CCCNC(=N)N)C(=O)N[C@H](C(=O)N[C@@H](Cc1ccc(O)cc1)C(N)=O)[C@@H](C)O)C(C)C)[C@@H](C)O` [Peptide 21, K(γE-γE-C18diacid)[CNTATC]ATQRLANFLVHSSNN(αMePhe)GPILPPTNVGSRTY-amide] (H-K([γGlu-γGlu-C18 diacid])CNTATCATQRLANFLVHSSNN[αMeF]GPILPPTNVGSRTY-NH2; disulfide 2-7; N-terminus assumed), the “Ratio (selectivity hAMYR vs hCTR, ratio of EC50 values at the two receptors)” value in data set [1] was found to be 25. For the same compound, the values for the concentration giving a half-maximal response (EC50) in data set [1] and in data set [2] were 136 pM and 3410 pM, respectively. Moreover, the “Time taken to detect increase” value in data set [3] is greater than 144 h. Also, the half-life in the data set “in vivo” (iv) is 8 h; in “in vivo” (sc) it was 8.1 h.

Consider `CC[C@H](C)[C@H](NC(=O)[C@@H]1CCCN1C(=O)CNC(=O)[C@H](Cc1ccccc1)NC(=O)[C@H](CC(N)=O)NC(=O)C(C)(C)NC(=O)[C@H](CO)NC(=O)[C@H](CO)NC(=O)[C@H](Cc1c[nH]cn1)NC(=O)[C@@H](NC(=O)[C@H](CC(C)C)NC(=O)[C@H](Cc1ccccc1)NC(=O)[C@H](CC(N)=O)NC(=O)[C@H](C)NC(=O)[C@H](CC(C)C)NC(=O)[C@H](CCCNC(=N)N)NC(=O)[C@H](CCC(N)=O)NC(=O)[C@@H](NC(=O)[C@H](C)NC(=O)[C@@H]1CSSC[C@H](NC(=O)[C@H](CCCCN)NC(=O)[C@@H](N)CCCCNC(=O)CC[C@H](NC(=O)CC[C@H](NC(=O)CCCCCCCCCCCCCCCCC(=O)O)C(=O)O)C(=O)O)C(=O)N[C@@H](CC(N)=O)C(=O)N[C@@H]([C@@H](C)O)C(=O)N[C@@H](C)C(=O)N[C@@H]([C@@H](C)O)C(=O)N1)[C@@H](C)O)C(C)C)C(=O)N[C@@H](CC(C)C)C(=O)N1CCC[C@H]1C(=O)N1CCC[C@H]1C(=O)N[C@H](C(=O)N[C@@H](CCCNC(=N)N)C(=O)N[C@H](C(=O)NCC(=O)N[C@@H](CO)C(=O)N[C@@H](CC(N)=O)C(=O)N[C@H](C(=O)N[C@@H](Cc1ccc(O)cc1)C(N)=O)[C@@H](C)O)C(C)C)[C@@H](C)O` [Peptide 70, K(γE-γE-C18diacid)K[CNTATC]ATQRLANFLVHSS(Aib)NFGPILPPTRVGSNTY-amide] (H-K([γGlu-γGlu-C18 diacid])KCNTATCATQRLANFLVHSS[Aib]NFGPILPPTRVGSNTY-NH2; disulfide 3-8; N-terminus assumed), for which the “Ratio (selectivity hAMYR vs hCTR, ratio of EC50 values at the two receptors)” value in data set [1] stood at 23. Further, the values for the 50% effective concentration (EC50) in data set [1] and in data set [2] were 235 pM and 5400 pM, respectively. Besides, the “Time taken to detect increase” value in data set [3] is reported as greater than 144 h. The half-life in the data set “in vivo” (iv) was 10.3 h; in the data set “in vivo” (sc) it was 12.5 h.

With `CC[C@H](C)[C@H](NC(=O)[C@@H]1CCCN1C(=O)CNC(=O)[C@H](Cc1ccccc1)NC(=O)[C@H](CC(N)=O)NC(=O)[C@H](CC(N)=O)NC(=O)[C@H](CO)NC(=O)[C@H](CO)NC(=O)[C@H](Cc1c[nH]cn1)NC(=O)[C@@H](NC(=O)[C@H](CC(C)C)NC(=O)[C@H](Cc1ccccc1)NC(=O)[C@H](CC(N)=O)NC(=O)[C@H](C)NC(=O)[C@H](CC(C)C)NC(=O)[C@H](CCCNC(=N)N)NC(=O)[C@H](CCC(N)=O)NC(=O)[C@@H](NC(=O)[C@H](C)NC(=O)[C@@H]1CSSC[C@H](NC(=O)[C@@H](N)CCCCNC(=O)CC[C@H](NC(=O)CC[C@H](NC(=O)CCCCCCCCCCCCCCCCC(=O)O)C(=O)O)C(=O)O)C(=O)N[C@@H](CC(N)=O)C(=O)N[C@@H]([C@@H](C)O)C(=O)N[C@@H](C)C(=O)N[C@@H]([C@@H](C)O)C(=O)N1)[C@@H](C)O)C(C)C)C(=O)N[C@@H](CC(C)C)C(=O)N1CCC[C@H]1C(=O)N1CCC[C@H]1C(=O)N[C@H](C(=O)N[C@@H](CC(N)=O)C(=O)N[C@H](C(=O)NCC(=O)N[C@@H](CO)C(=O)N[C@@H](CC(N)=O)C(=O)N[C@H](C(=O)N[C@@H](Cc1ccc(O)cc1)C(N)=O)[C@@H](C)O)C(C)C)[C@@H](C)O` [Peptide 5] (H-K([γGlu-γGlu-C18 diacid])CNTATCATQRLANFLVHSSNNFGPILPPTNVGSNTY-NH2; disulfide 2-7; N-terminus assumed), the “Ratio (selectivity hAMYR vs hCTR, ratio of EC50 values at the two receptors)” value in data set [1] came out at 21. Besides, the EC50 in data set [1] worked out at 174 pM; in data set [2] it was 3600 pM. The fibril-forming tendency entry in data set [3] (ThT assay, 1 mg/mL, pH 4.0, 37 °C, compared to pramlintide) is “increases the fibril-forming tendency”. Besides, the “Time taken to detect increase” value in data set [3] was 7 h. The half-life in the data set “in vivo” (iv) was 10.5 h; in “in vivo” (sc), 9.4 h.
